Reference: US9505743B2, “Matrix metalloproteinase inhibitors and methods for the treatment of pain and other diseases” (AQUILUS PHARMACEUTICALS, INC., priority 2012, dated 2016)
Blank lines part the entries; values can stand above or below the molecule they belong to.

What was measured:
[1] = molecular target: Catalytic domain of MMP-13 (human recombinant) (Homo sapiens (Human), UniProt P45452); assay: MMP-13 inhibition assay; type: biochemical
Protocol: Catalytic domain of MMP-13 (human recombinant) enzyme was then added to the compound solution. […] The time-dependent increase in fluorescence is measured at the 355 nm excitation and 405 nm emission by automatic plate multireader.

[2] = In vivo rat pharmacokinetics, oral administration; settings: plasma, PO 1.0 mg/kg, male Lewis rats, mean
Protocol: Six (6) male Lewis rats were used. Fasting was conducted at least 16 hours prior to dose administration. Food was returned at approximately 4 hours post dose. The animals were placed into 2 groups of 3 animals per group. The oral (PO) formulation for Groups 1 & 2 were prepared on the day of dosing at a target concentration of 0.5 mg/mL in 0.5% Methylcellulose (400 cps) to produce a white, homogeneous suspension. Dosing was performed as outlined in Table 24:
Each animal in Group 1 received prepared compound (56) by oral dose administration at a target dose level of 1.0 mg/kg and at a dose volume of 2 mL/kg. Each animal in Group 2 received prepared compound (45) by oral dose administration at a target dose level of 1.0 mg/kg and at a dose volume of 2 mL/kg (Table 24). Whole blood samples (0.250 mL; K2EDTA anticoagulant) were collected from each animal through a jugular vein catheter. Whole blood samples were collected from all animals pre-dose, and at 0.25, 0.5, 1, 2, 4, 8, 16, and 24 hours after dose administration. All blood samples were immediately placed on ice until processing. Whole blood samples were centrifuged at 2200×g for 10 minutes in a refrigerated centrifuge (5±3° C.) to isolate plasma. The plasma samples were transferred to individual polypropylene vials and immediately placed on dry ice before storage at nominally −20±5° C. The plasma samples some time later were then thawed and extracted and analyzed by high pressure liquid chromatography (HPLC) coupled to Mass Spectrometery (MS) (Table 25). Pharmacokinetic parameters (Table 25) were estimated using WinNonlin® pharmacokinetic software (Version No. 5.2.1) using a non-compartmental approach consistent with the PO route of administration.

[3] = clinical; cited from earlier work
[4] = In-vitro human microsomal stability; type: in vitro ADME; settings: human microsomes, compound 1 microMoles, at T = 60 minutes
Protocol: (§1) Human and Rat microsomal stability was determined for select compounds following the method of Houston (Houston, J B; Biochem. Pharmacol. 47, (1994), 1469). 1 μM concentration of compound and separate human and Rat microsomes (0.3 mg/mL, BD bioscience) were used in the in-vitro assay. To ensure proper energy supply for microsomal degradation of compound, an energy regenerating system comprised of 100 mM potassium phosphate, 2 mM NADPH, 3 mM MgCl2, pH=7.4 and the microsomal protein is added to each sample and the resulting suspension is then incubated in duplicate for 60 min at 37° C. in a rotary shaker. A control is run for each test agent in duplicate omitting NADPH to detect NADPH-free degradation. At T=0 and T=60 min., an aliquot is removed from each experimental and control reaction and then mixed with an equal volume of ice-cold Stop Solution (consisting of 0.3% acetic acid in acetonitrile containing haloperidol and diclofenac as internal standards). Stopped reactions are then incubated for at least ten minutes at −20° C., and an additional volume of water is then added. The samples are then centrifuged to remove precipitated protein, and the supernatants are then analyzed by LC-MS/MS to determine the percentage of compound remaining. The LC-MS/MS system used was an Agilent 6410 mass spectrometer coupled with an Agilent 1200 HPLC and a CTC PAL chilled autosampler, all controlled by MassHunter software (Agilent), or an ABI2000 mass spectrometer coupled with an Agilent 1100 HPLC and a CTC PAL chilled autosampler, all controlled by Analyst software (ABI). After separation on a C18 reverse phase HPLC column (Agilent, Waters, or equivalent) using an acetonitrile-water gradient system, peaks were analyzed by mass spectrometry (MS) using ESI ionization in MRM mode. Verapamil (high metabolized) and Warfarin (low metabolized) are used as controls to test the activity of the microsomal proteins. Table 15 and 16 below show the microsomal stability of select compounds in both human and Rat microsomes.

[5] = In-vitro rat microsomal stability; type: in vitro ADME; settings: rat microsomes, compound 1 microMoles, at T = 60 minutes
Protocol: as §1

[6] = molecular target: Catalytic domain of MMP-2 (human recombinant) (Homo sapiens (Human), UniProt P08253); assay: MMP-2 inhibition assay; settings: read-out: Average Percent Inhibition MMP-2
Catalytic domain of MMP-2 (human recombinant), sequence (P08253 110-465): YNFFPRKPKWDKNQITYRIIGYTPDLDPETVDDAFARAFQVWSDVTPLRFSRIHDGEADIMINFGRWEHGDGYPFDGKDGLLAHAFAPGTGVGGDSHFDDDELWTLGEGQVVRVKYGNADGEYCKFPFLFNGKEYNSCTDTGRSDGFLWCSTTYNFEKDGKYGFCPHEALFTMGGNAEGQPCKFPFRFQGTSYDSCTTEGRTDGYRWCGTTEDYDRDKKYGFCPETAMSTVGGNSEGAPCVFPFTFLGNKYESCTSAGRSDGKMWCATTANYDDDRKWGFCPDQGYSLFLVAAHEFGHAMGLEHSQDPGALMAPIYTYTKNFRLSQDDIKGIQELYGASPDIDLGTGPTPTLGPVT
Protocol: A concentration of MMP inhibitor of the present invention was tested (10 microMolar) in duplicate runs. Catalytic domain of MMP-2 (human recombinant) enzyme (10 nanoMolar) was added to the compound solution. The mixture of enzyme and compound in assay buffer was then thoroughly mixed and incubated for 60 minutes at 37° C. Upon the completion of incubation, the assay was then started by the addition of 10 μM of fluorescent substrate Mca-P-L-G-L-Dpa-A-R-NH2 (Kd ˜8 microMolar). The fluorescent product, McaPLG, was then measured at excitation of 355 nm and emission 405 nm by an automatic plate multireader at 37° C. […] Any inhibition <50% is considered not active under these assay conditions.

[7] = molecular target: Catalytic domain of MMP-9 (human recombinant) (Homo sapiens (Human), UniProt P14780); assay: MMP-9 inhibition assay; type: biochemical; settings: compound 10 microMolar; substrate DNP-Pro-Cha-Gly-Cys(Me)-His-Ala-Lys(N-Me-Abz)-NH2 10 microMolar; <50% considered not active; read-out: Average Percent Inhibition MMP-9
Catalytic domain of MMP-9 (human recombinant), sequence (P14780 107-444): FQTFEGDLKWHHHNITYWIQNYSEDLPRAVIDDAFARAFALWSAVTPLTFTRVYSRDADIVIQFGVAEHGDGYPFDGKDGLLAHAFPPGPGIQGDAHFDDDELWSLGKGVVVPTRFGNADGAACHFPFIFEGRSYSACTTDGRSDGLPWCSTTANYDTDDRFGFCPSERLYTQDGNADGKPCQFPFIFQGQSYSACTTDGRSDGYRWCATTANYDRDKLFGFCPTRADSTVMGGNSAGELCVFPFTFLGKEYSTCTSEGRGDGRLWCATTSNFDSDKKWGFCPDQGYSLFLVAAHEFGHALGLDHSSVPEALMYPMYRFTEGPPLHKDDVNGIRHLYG

[8] = molecular target: Catalytic domain of MMP-1 (human recombinant) (Homo sapiens (Human), UniProt P03956); assay: MMP-1 inhibition assay; type: biochemical; settings: compound 10 microMolar; substrate 10 microMolar; <50% considered not active; read-out: Average Percent Inhibition MMP-1
Catalytic domain of MMP-1 (human recombinant), sequence (P03956 98-276): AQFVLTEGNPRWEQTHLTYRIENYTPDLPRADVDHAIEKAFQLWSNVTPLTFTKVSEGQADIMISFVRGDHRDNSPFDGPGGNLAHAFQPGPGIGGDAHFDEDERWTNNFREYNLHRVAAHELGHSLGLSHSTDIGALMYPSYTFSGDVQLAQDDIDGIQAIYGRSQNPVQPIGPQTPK

[9] = molecular target: Catalytic domain of MMP-3 (human recombinant) (Homo sapiens (Human), UniProt P08254); assay: MMP-3 inhibition assay; type: biochemical; settings: compound 10 microMolar; substrate McaRPKPVENvalWRK(Dnp)NH2 10 microMolar; <50% considered not active; read-out: Average Percent Inhibition MMP-3
Catalytic domain of MMP-3 (human recombinant), sequence (P08254 100-272): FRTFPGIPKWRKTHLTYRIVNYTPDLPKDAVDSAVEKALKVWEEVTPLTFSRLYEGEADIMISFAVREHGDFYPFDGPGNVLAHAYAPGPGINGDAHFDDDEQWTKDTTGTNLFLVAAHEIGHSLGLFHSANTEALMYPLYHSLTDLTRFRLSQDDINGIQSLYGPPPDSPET
Protocol: Catalytic domain of MMP-3 (human recombinant) enzyme was then added to the compound solution. […] A positive control was then run separately using the broad spectrum MMP inhibitor Tyr-hydroxamic acid as a control compound. […]

MMP-12 = MMP-12 (Homo sapiens (Human), UniProt P39900); assay: MMP-12 inhibition assay (electrophoretic mobility shift); type: biochemical; settings: compound 10 microMolar; Fluorescein-labeled peptide 4 microMolar; <50% considered not active; read-out: Average Percent Inhibition MMP-12
MMP-12, sequence (P39900 106-470, species assumed): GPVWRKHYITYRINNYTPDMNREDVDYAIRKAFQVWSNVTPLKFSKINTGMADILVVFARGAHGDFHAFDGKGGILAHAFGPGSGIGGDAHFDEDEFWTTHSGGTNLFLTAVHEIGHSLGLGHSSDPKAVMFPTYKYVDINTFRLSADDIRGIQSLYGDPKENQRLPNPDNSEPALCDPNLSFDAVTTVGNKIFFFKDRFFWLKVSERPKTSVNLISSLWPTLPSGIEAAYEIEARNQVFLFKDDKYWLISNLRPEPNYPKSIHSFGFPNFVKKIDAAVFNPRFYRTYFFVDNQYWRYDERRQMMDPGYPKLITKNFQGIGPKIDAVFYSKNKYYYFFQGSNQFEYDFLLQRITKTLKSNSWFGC
Protocol: MMP-12 inhibitor activity was carried out by first separating the cleaved and uncleaved substrates by charge via electrophoretic mobility shift and then measuring the fluorescence of the separated products and comparing them with control reactions to determine inhibition of enzyme activity. The MMP-12 assay was then run using an assay buffer comprising of 100 mM HEPES, pH 7.5, 0.01% Brij-35, 1.5 mM NaCl and 2 mM CaCl2. […] The reaction was started by first adding the substrate and then incubating the reaction mixture for 1 hour at room temperature. The reaction was then terminated via the addition of a stop buffer consisting of 100 mM HEPES (pH 7.5), 30 mM EDTA, 0.015% Brij-35, and 5% DMSO. […]

- IC50 [1]: < 100 nM
Compound: [2H]C([2H])(NC(=O)c1cc(C(=O)NCc2cccc(OC)c2)ncn1)c1ccc(C(=O)O)cc1

- AUC(0-inf) [2]: 428 ng·h/mL
- AUC(0-t) [2]: 414 ng·h/mL
- Cmax [2]: 310 ng/mL
- Tmax [2]: 24.6 min
- half-life [2]: 110 min
Compound: Cc1cc(CNC(=O)c2cc(C(=O)NCc3ccc(C(=O)O)cc3)ncn2)ccc1F [Compound 45, 4-({[6-(4-Fluoro-3-methyl-benzylcarbamoyl)-pyrimidine-4-carbonyl]-amino}-methyl)-benzoic acid]

- AUC(0-inf) [2]: 705 ng·h/mL
- AUC(0-t) [2]: 697 ng·h/mL
- Cmax [2]: 362 ng/mL
- Tmax [2]: 45 min
- half-life [2]: 73.2 min
Compound: [2H]C([2H])(NC(=O)c1cc(C(=O)NCc2ccc(F)c(C)c2)ncn1)c1ccc(C(=O)O)cc1 [Compound 56, 4-(Dideutero-{[6-(4-fluoro-3-methyl-benzylcarbamoyl)-pyrimidine-4-carbonyl]-amino}-methyl)-benzoic acid]

Compound: CNC(=O)[C@@H](NC(=O)[C@H](CC(C)C)[C@H](O)C(=O)NO)C(C)(C)C [Marimastat, marimastat]
- Toxicities in humans [3]: time-dependent and dose-dependent musculoskeletal toxicities (arthralgia, myalgia, tendinitis)

- Mean Remaining Parent with NADPH (%) [4]: 103%
Compound: Cc1cc(CNC(=O)c2cc(C(=O)NCc3ccc(C(=O)O)cc3)ncn2)ccc1F [drawing 264]

- Mean Remaining Parent with NADPH (%) [4]: 104%
Compound: [2H]C([2H])(NC(=O)c1cc(C(=O)NCc2ccc(F)c(C)c2)ncn1)c1ccc(C(=O)O)cc1 [drawing 265]

- Mean Remaining Parent with NADPH (%) [4]: 95.6%
Compound: [2H]C([2H])(NC(=O)c1cc(C(=O)NCc2ccc(C(=O)O)cc2)ncn1)c1ccc(F)c(C)c1 [drawing 266]

- Mean Remaining Parent with NADPH (%) [4]: 88.1%
Compound: COc1cccc(CNC(=O)c2cc(C(=O)NCc3ccc(-c4nnn[nH]4)cc3)ncn2)c1 [drawing 267]

- Mean Remaining Parent with NADPH (%) [4]: 95.3%
Compound: [2H]C([2H])(NC(=O)c1cc(C(=O)NCc2ccc(-c3nn[nH]n3)cc2)ncn1)c1cccc(OC)c1 [drawing 268]

- Mean Remaining Parent with NADPH (%) [4]: 5.3%
Compound: Cc1cc(CNC(=O)c2cc(C(=O)NCc3ccc(F)c(C)c3)ncn2)ccc1F [drawing 269]

- Mean Remaining Parent with NADPH (%) [4]: 5.5%
Compound: [2H]C([2H])(NC(=O)c1cc(C(=O)NC([2H])([2H])c2ccc(F)c(C)c2)ncn1)c1ccc(F)c(C)c1 [drawing 270]

- % Mean Remaining Parent with NADPH (%) [5]: 90.7%
Compound: Cc1cc(CNC(=O)c2cc(C(=O)NCc3ccc(C(=O)O)cc3)ncn2)ccc1F [drawing 271]

- % Mean Remaining Parent with NADPH (%) [5]: 87.4%
Compound: [2H]C([2H])(NC(=O)c1cc(C(=O)NCc2ccc(C(=O)O)cc2)ncn1)c1ccc(F)c(C)c1 [drawing 272]

- % Mean Remaining Parent with NADPH (%) [5]: 98.5%
Compound: [2H]C([2H])(NC(=O)c1cc(C(=O)NCc2ccc(F)c(C)c2)ncn1)c1ccc(C(=O)O)cc1 [drawing 273]

- % Mean Remaining Parent with NADPH (%) [5]: 52.8%
Compound: COc1cccc(CNC(=O)c2cc(C(=O)NCc3ccc(-c4nnn[nH]4)cc3)ncn2)c1 [drawing 274]

- % Mean Remaining Parent with NADPH (%) [5]: 57.4%
Compound: [2H]C([2H])(NC(=O)c1cc(C(=O)NCc2ccc(-c3nn[nH]n3)cc2)ncn1)c1cccc(OC)c1 [drawing 275]

- % Mean Remaining Parent with NADPH (%) [5]: 0.6%
Compound: Cc1cc(CNC(=O)c2cc(C(=O)NCc3ccc(F)c(C)c3)ncn2)ccc1F [drawing 276]

- % Mean Remaining Parent with NADPH (%) [5]: 1.7%
Compound: [2H]C([2H])(NC(=O)c1cc(C(=O)NC([2H])([2H])c2ccc(F)c(C)c2)ncn1)c1ccc(F)c(C)c1 [drawing 277]

- inhibition at 10 µM [6]: 8.19%
Compound: [2H]C([2H])(NC(=O)c1cc(C(=O)NCc2ccc(C(=O)O)cc2)ncn1)c1ccc(F)c(C)c1 [drawing 278]

- inhibition at 10 µM [7]: 2.39%
Compound: [2H]C([2H])(NC(=O)c1cc(C(=O)NCc2ccc(C(=O)O)cc2)ncn1)c1ccc(F)c(C)c1 [drawing 279]

- inhibition at 10 µM [8]: 1.83%
Compound: [2H]C([2H])(NC(=O)c1cc(C(=O)NCc2ccc(C(=O)O)cc2)ncn1)c1ccc(F)c(C)c1 [drawing 280]

- inhibition at 10 µM [9]: 1.31%
Compound: [2H]C([2H])(NC(=O)c1cc(C(=O)NCc2ccc(C(=O)O)cc2)ncn1)c1ccc(F)c(C)c1 [drawing 281]

- inhibition at 10 µM (MMP-12): 0.68%
Compound: [2H]C([2H])(NC(=O)c1cc(C(=O)NCc2ccc(C(=O)O)cc2)ncn1)c1ccc(F)c(C)c1 [drawing 282]

- inhibition at 1 µM ([1]; read-out: Average Percent Inhibition MMP-13): 92%
Compound: [2H]C([2H])(NC(=O)c1cc(C(=O)NCc2ccc(-c3nn[nH]n3)cc2)ncn1)c1cccc(OC)c1 [drawing 283]

- IC50 [1]: < 100 nM
Compound: [2H]C([2H])(NC(=O)c1cc(C(=O)NCc2ccc(C(=O)O)cc2)ncn1)c1ccc(F)c(C)c1 [drawing 284]

- IC50 [1]: < 100 nM
Compound: [2H]C([2H])(NC(=O)c1cc(C(=O)NCc2ccc(F)c(C)c2)ncn1)c1ccc(C(=O)O)cc1 [drawing 285]
